Series [1] concerns MCF-7 human breast cancer. In words: Human cytotoxicity (MTT) assay. In kind it is cell-based. The following applies: for % Inh. MCF-7: after 72 hours, Conc. 200 µM. The protocol: (§1) This Example describes human cytotoxicity of individual SMs. […] Three cancer cell lines (NCI-H460 human non-small cell lung cancer, SF-268 human central nervous system glioma, and MCF-7 human breast cancer) were used that are routinely use as “sentinels” (if a compound is cytotoxic, then at least one of these are usually killed). HFF cells (human foreskin normal cells, not cancer cells) was also used as a “control”.
(§2) Tested concentrations of these SMs increased at 50, 100 uM, then at 200 uM (Table 7).

Series [2] deals with NCI-H460 human non-small cell lung cancer. In words: Human cytotoxicity (MTT) assay. The format is cell-based. The following applies: for % Inh. NCI-H460: Conc. 200 µM. The protocol: as §1, §2
Series [3] concerns HFF cells (human foreskin normal cells). In words: Human cytotoxicity (MTT) assay. The format is cell-based. The settings on record: after 72 hours; for % Inh. HFF: Conc. 200 µM. The protocol: as §1, §2
In series [4] the test system is SF-268 human central nervous system glioma. In words: Human cytotoxicity (MTT) assay. In kind it is cell-based. The settings on record: for % Inh. SF-268: after 72 hours, Conc. 200 µM. The protocol: as §1, §2
The test system of series [5] is Tylenchulus semipenetrans. In words: In vitro nematicidal/nematistatic assay on the infective stage (J2 juveniles) of the citrus nematode. The format is in vivo. The following applies: for Concentration at which nematicidal activity was observed: observational data; for LC50 / EC50: Tylenchulus semipenetrans. The protocol:
(§3) Time points for observations were at 24, 48, and 72 h after initial exposure of each SM against J2 juveniles of M. incognita and T. semipenetrans under in vitro conditions.
(§4) After assessments of individual SM toxicity, the combined toxic effects of these SMs was assayed in order to understand interaction between each SM. […] In addition, the additive index values were calculated and indicated in each Table.
(§5) When analyzing the results of combination effects of the SMs, the statistical method described by DeLorenzo and Serrano (2003) was used as follows: S=(Am/Ai)+(Bm/Bi). Where: S=sum of biological activity or total toxicant unit (TTU); Am=LC50 for compound A in the mixture; Ai=LC50 for compound A in the individual effect; Bm=LC50 for compound B in the mixture; Bi=LC50 for compound B in the individual effect. S values will be used to calculate an additive index. If S≤1.0, then the additive index=(1/S)−1.0.

In series [6] the test system is Meloidogyne incognita. In words: In vitro nematicidal/nematistatic assay on the infective stage (J2 juveniles) of the root-knot nematode. The format is in vivo. The settings on record: for Concentration at which nematicidal activity was observed: observational data; for LC50 / EC50: Meloidogyne incognita. The protocol:
as §3, §4, §5

For series [7], the system named is Steinernema carpocapsae. In words: whole plant or invertebrate. The protocol: (§6) Laboratory assays were carried out to assess the nematicidal activity of the above-mentioned secondary metabolites (SMs) on the infective stage (i.e. the one that infects the roots of plants) of: 1) the root-knot nematode, (M. incognita); and 2) the citrus nematode (T semipenetrans). The effect of these SMs on five beneficial soil nematode species microbivores and those involved in nutrient cycling) was also tested to make sure these compounds only affect plant parasites (only for individual SM experiments).
(§7) Five non-target nematode species includes:
(§8) three entomopathogenic species: Steinernema carpocapsae, H bacteriophora, and H sonorensis.
(§9) The susceptibility of test population to these SMs was assessed by constructing a dosage-mortality curve in which the dosage was plotted against the percentage mortality at a given period of time (FIGS. 1-3).
Concentration-response data for each concentration of single Photorhabdus-derived SMs and the mixtures were pooled and subjected to Probit regression analysis using the Polo Plus program (LeOra software, Petaluma, Calif.). The LC or EC values, along with corresponding 95% confidence intervals, were estimated for each single SM and SM mixture at each exposure time, depending on the experimental setting. […]

In series [8] the test system is Caenorhabditis elegans. In words: whole plant or invertebrate. The method, then:
as §6, §7
(§10) two free-living bacterivores: Caenorhabditis elegans and Rhabditis blumi.
as §9
(§11) Concentration-response data for each concentration of single Photorhabdus-derived SMs and the mixtures were pooled and subjected to Probit regression analysis using the Polo Plus program (LeOra software, Petaluma, Calif.). The LC or EC values, along with corresponding 95% confidence intervals, were estimated for each single SM and SM mixture at each exposure time, depending on the experimental setting. Statistically significant differences in LC or EC values among SMs at a given exposure time period within or among nematode species were interpreted based on non-overlapping of 95% confidence intervals. For the toxicity data visualization, the relationship between percent mortality or temporary quiescence and concentration was described by a sigmoidal curve, which is fitted by the logistical function, using the statistical software package Sigmaplot for Windows, version 14.0 (Systat Software Inc., San Jose, Calif., USA).

Series [9] concerns Rhabditis blumi. The experiment in a line: whole plant or invertebrate. The protocol: as §6, §7, §10, §9, §11
Series [10] is described as follows: in vitro. The method, then:
as §6, §7, §8, §9, §11

For series [11], the system named is H. sonorensis. In words: animal or person. The following applies: read-out: EC50 (effective concentration causing 50% reversible nematode paralysis, temporary quiescence). The protocol: as §6, §7, §8, §9, §11
The subject of series [12] is H. bacteriophora. In words: whole plant or invertebrate. The settings on record: Heterorhabditis bacteriophora, read-out: EC50 (effective concentration causing 50% reversible nematode paralysis, temporary quiescence). The method, then:
as §6, §7, §8, §9, §11

Setting [13] is: T. semipenetrans, in vitro, 24 h exposure.
Setting [14] is: read-out: LC50 (lethal concentration causing 50% nematode death), Table 6: individual compounds or compound mixtures, J2 juveniles of T. semipenetrans, in vitro.
Setting [15] is: M. incognita, in vitro, 24 h exposure.
[16] abbreviates: read-out: LC50 (lethal concentration causing 50% nematode death), Table 5: individual compounds or compound mixtures, J2 juveniles of M. incognita, in vitro.

Molecules are shown by their SMILES. Values after ≈ are worked out from the molar mass of the structure shown. Where two headings read alike, the source gives them in different places. Marks after values point to notes of the source that are not given here. A value given as a limit tells only on which side of the number the result lay.

Take `COc1cccc2c1C(=O)c1c(O)c3c(c(O)c1C2=O)C[C@@](O)(C(=O)CO)C[C@@H]3O[C@H]1C[C@H](N)[C@H](O)[C@H](C)O1` [Doxorubicin, reference compound]: the inhibition at 1 µM in series [1] (Homo sapiens, MCF7, after 72 hours, Conc. 1 μM (+ control), read-out: % Inh. MCF-7) turned out to be 64.1%; in series [2] (Homo sapiens, NCI-H460, MTT, after 72 hours, Conc. 1 μM (+ control), read-out: % Inh. NCI-H460), 97.2%; in series [3] (Homo sapiens, HFF, Conc. 1 μM (+ control)), 64.9%; in series [4] (Homo sapiens, SF-268, after 72 hours, Conc. 1 μM (+ control), read-out: % Inh. SF-268), 86.7%.
As for `O=C(O)/C=C/c1ccccc1` [TCA, trans-cinnamic acid], the “% Inh. MCF-7” value in series [1] is listed as 2.59%. Besides, the “% Inh. HFF” value in series [3] turned out to be 10.8%. Moreover, the “% Inh. SF-268” value in [4] is given as 13.0%.
As to `O=C(O)CC/C=C/c1ccccc1` [PPA, (4E)-5-phenylpent-4-enoic acid], the “LC50 (lethal concentration causing 50% nematode death)” value in [5] (setting [13]) was 66.3 (50.7-73.4) μg mL^−1; in series [6] (setting [15]), 44.4 (38.8-48.6) μg mL^−1; in series [7] (S. carpocapsae, in vitro), >400^e μg mL^−1; in series [8] (C. elegans, in vitro) it was 278 µg/mL (≈ 1580 µM); in [9] (R. blumi, in vitro) it was 346 µg/mL (≈ 1960 µM). Further, the “Concentration at which nematicidal activity was observed” value in [5] (T. semipenetrans) and in series [6] (M. incognita) was ≥ 40 µg/mL each time. Moreover, the LC50 in series [5] (read-out: LC50 (concentration required to kill 50% nematode population), T. semipenetrans, 24 h of exposure) is 66 µg/mL; in [5] (read-out: LC50 (lethal concentration causing 50% nematode death), T. semipenetrans, in vitro, 24 h exposure), 66.3 µg/mL; in series [5] (setting [14]) it was 66.3 µg/mL; in [5] (J2 juveniles of T. semipenetrans (CN), 48 h exposure, read-out: LC50 (95% confidence interval)) it was 59.8 µg/mL; in [5] (J2 juveniles of T. semipenetrans (CN), 72 h exposure, read-out: LC50 (95% confidence interval)) it was 42.2 µg/mL; in series [6] (read-out: LC50 (concentration required to kill 50% nematode population), M. incognita, 24 h of exposure), 44 µg/mL. Besides, the LC50 in series [6] (read-out: LC50 (lethal concentration causing 50% nematode death), M. incognita, in vitro, 24 h exposure) is 44.4 µg/mL; in series [6] (setting [16]), 44.4 µg/mL; in series [6] (J2 juveniles of M. incognita (RKN), 48 h exposure, read-out: LC50 (95% confidence interval)), 42 µg/mL; in [6] (J2 juveniles of M. incognita (RKN), 72 h exposure, read-out: LC50 (95% confidence interval)) it was 38.9 µg/mL; in [10] (H. bacteriophora), > 400 µg/mL; in [10] (H. sonorensis, whole H. sonorensis nematodes (non-target entomopathogenic)) it was > 400 µg/mL. In series [1], the “% Inh. MCF-7” value is −5.35%. In series [2] (MTT, after 72 hours), the “% Inh. NCI-H460” value is 3.97%. Moreover, the “% Inh. HFF” value in [3] is reported as 22.6%. Moreover, in [4], the “% Inh. SF-268” value was 7.76%.
Take `c1ccc2[nH]ccc2c1` [ID, indole]: the “Concentration at which nematistatic activity (reversible quiescence) was induced” value in series [5] (T. semipenetrans) was > 10 µg/mL; in [6] (M. incognita) it was > 40 µg/mL. The “EC50 (effective concentration causing 50% reversible nematode paralysis, temporary quiescence)” value in series [5] (setting [13]) is on record as 37.1 (28.7-43.4) μg mL^−1; in series [6] (setting [15]) it was 56.3 (52.9-59.6) μg mL^−1. For the same molecule, the “Concentration at which nematicidal activity was observed” value in [5] (T. semipenetrans) and in [6] (M. incognita) was ≥ 300 µg/mL in each case. Also, the EC50 is 37 µg/mL in series [5] (read-out: EC50 (concentration required to immobilize 50% of nematode population), T. semipenetrans); 37.1 µg/mL in [5] (read-out: EC50 (effective concentration causing 50% reversible nematode paralysis, temporary quiescence), T. semipenetrans, in vitro, 24 h exposure); 66.2 µg/mL in [5] (J2 juveniles of T. semipenetrans, 48 h exposure, read-out: EC50 (95% confidence interval), reversible paralysis); 68.3 µg/mL in [5] (J2 juveniles of T. semipenetrans, 72 h exposure, read-out: EC50 (95% confidence interval), reversible paralysis); 56 µg/mL in [6] (read-out: EC50 (concentration required to immobilize 50% of nematode population), M. incognita); 56.3 µg/mL in series [6] (read-out: EC50 (effective concentration causing 50% reversible nematode paralysis, temporary quiescence), M. incognita, in vitro, 24 h exposure). Further, the EC50 in series [6] (J2 juveniles of M. incognita (RKN), 48 h exposure, read-out: EC50 (95% confidence interval), reversible paralysis) was 61.3 µg/mL; in series [6] (J2 juveniles of M. incognita (RKN), 72 h exposure, read-out: EC50 (95% confidence interval), reversible paralysis) it was 76.3 µg/mL; in [7] (Steinernema carpocapsae, read-out: EC50 (effective concentration causing 50% reversible nematode paralysis, temporary quiescence)), > 400 µg/mL; in series [8] (Caenorhabditis elegans, read-out: EC50 (effective concentration causing 50% reversible nematode paralysis, temporary quiescence)), 159 µg/mL (≈ 1360 µM); in [9] (Metarhabditis blumi, read-out: EC50 (effective concentration causing 50% reversible nematode paralysis, temporary quiescence)), 37 µg/mL (≈ 316 µM); in series [11] it was > 400 µg/mL. Further, the EC50 in series [12] was > 400 µg/mL. Further, the LC50 came to 388 µg/mL in series [5] (setting [14]); 388 µg/mL in series [5] (T. semipenetrans, ID alone and SM mixtures, exposure time not given, read-out: LC50); 307 µg/mL in series [6] (setting [16]); 307 µg/mL in series [6] (M. incognita, ID alone and SM mixtures, exposure time not given, read-out: LC50). Moreover, the “% Inh. MCF-7” value in [1] was determined as 5.31%. In addition, in series [2] (MTT, after 72 hours), the “% Inh. NCI-H460” value stood at 30.5%. The “Toxicity against NCI-H460” value in series [2] (at 200 uM) is on record as 30.5%. In addition, the “% Inh. HFF” value in [3] was 4.64%. Also, the “% Inh. SF-268” value in series [4] was 20.2%.
